Source: patent US9777034B2, “Modular synthesis of amphiphilic Janus glycodendrimers and their self-assembly into glycodendrimersomes” (The Trustees of The University of Pennsylvania, priority 2013, dated 2017)
Entries after “also recorded” stand apart in the source; their conditions may differ.

Test system: concanavalin A (Con A)
Assay: not given
Details: not given

| Substance | agglutination with Con A, dependence on glycodendrimersome diameter |
| --- | --- |
| (3,5)12G1-PE-TRZi-3EOMan2 [Compound 51bb] | smallest glycodendrimersome provides the fastest agglutination |

Molecular target: T1, galectin-3 (Gal-3) (Homo sapiens, UniProt P17931)
T1 construct: made in house
Assay: Agglutination of glycodendrimersomes with Gal-3
Assay type: binding
Details: [52bd]=1.0 mg/mL, [Gal-3]=0-4.0 mg/mL, 10 mM HEPES

T1 sequence (P17931 whole entry): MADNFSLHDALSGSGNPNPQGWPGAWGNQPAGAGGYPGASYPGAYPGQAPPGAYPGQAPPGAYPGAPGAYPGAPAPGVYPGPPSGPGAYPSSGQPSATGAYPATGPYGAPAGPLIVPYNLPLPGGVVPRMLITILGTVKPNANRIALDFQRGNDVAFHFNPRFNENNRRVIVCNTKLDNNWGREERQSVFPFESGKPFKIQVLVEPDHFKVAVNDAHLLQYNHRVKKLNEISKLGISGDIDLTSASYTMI

| Substance | agglutination with Gal-3 |
| --- | --- |
| (3,5)12G1-PE-TRZ-4EOLac2 [Compound 52bd] | agglutination |

Test system: not listed separately
Assay: Self-assembly by injection of THF or ethanol solution into water or buffer, analysed by DLS (size, polydispersity, stability in time)
Details: 10 mg/mL final concentration in water
Description: The resulting assemblies were first analyzed by dynamic light scattering (DLS) for size, polydispersity (PDI), and stability in time. Assemblies stable in time were subsequently analyzed by cryogenic-transmission electron microscopy (cryo-TEM) to determine their structure.
Dynamic light scattering (DLS) was performed with a Malvern Instruments particle sizer (Zetasizer® Nano S, Malvern Instruments, UK) equipped with 4 mW He—Ne laser 633 nm and avalanche photodiode positioned at 175° to the beam and temperature controlled cuvette holder. Instrument parameters were determined automatically along with measurement times. Experiments were performed in triplicate. The Janus-dendrimer (1 mg) dissolved in 100 μL of THF was injected into 2 mL of ultrapure water or buffer followed by 5 seconds of vortex mixing. DLS experiments were measured at 25° C. Different final concentration of dendrimersomes in water was prepared from varying the starting concentration of THF solution with the same injection volume (100 μL) into constant 2.0 mL of ultrapure water or buffer.

| Substance | precipitation |
| --- | --- |
| (3,5)2Et8G1-PE-TRZi-3EOGal2 [Compound 49bb] | does not exhibit any sign of precipitation |

Same assay, conditions: PBS and HEPES buffers

| Substance | stability of glycodendrimersomes in buffer |
| --- | --- |
| (3,5)12G1-PE-TRZi-3EOLac2 [Compound 53ba] | stable in buffer |
| (3,4,5)2Et8G1-PE-TRZi-3EOGal2 [Compound 49cb] | stable in buffer |
| (3,4,5)12G1-PE-spacer-TRZ-(4EO-lactose)2 [Compound 52dd] | stable in buffer |
| (3,5)2Et8G1-PE-TRZi-3EOGal2 [Compound 49bb] | stable in buffer |
| (3,5)12G1-PE-TRZ-4EOLac2 [Compound 52bd] | stable in buffer |
| (3,4,5)2Et8G1-PE-TRZi-3EOLac2 [Compound 53fa] | stable in buffer |
| (3,4)2Et8G1-PE-TRZi-3EOGal2 [Compound 49ab] | stable in buffer |
| (3,5)12G1-PE-TRZi-3EOMan2 [Compound 51bb] | stable in buffer |
| (3,5)2Et8G1-PE-TRZi-3EOLac2 [Compound 53ea] | stable in buffer |
| (3,5)12G1-PE-TRZi-3EOGal2 [Compound 51ba] | stable in buffer |

Same assay, conditions: concentration above 10 mg/mL

| Substance | average vesicle size |
| --- | --- |
| (3,5)2Et8G1-PE-TRZi-3EOGal2 [Compound 49bb] | of the order of a micrometer |

Same assay, conditions: concentrations higher than 10 mg/mL

| Substance | stability of vesicles in water and buffer |
| --- | --- |
| (3,5)2Et8G1-PE-TRZi-3EOGal2 [Compound 49bb] | stable in water and buffer |

Molecular target: T2, galectin-4 (Gal-4) (Homo sapiens, UniProt P56470)
T2 construct: made in house
T2 sequence (P56470 1-323): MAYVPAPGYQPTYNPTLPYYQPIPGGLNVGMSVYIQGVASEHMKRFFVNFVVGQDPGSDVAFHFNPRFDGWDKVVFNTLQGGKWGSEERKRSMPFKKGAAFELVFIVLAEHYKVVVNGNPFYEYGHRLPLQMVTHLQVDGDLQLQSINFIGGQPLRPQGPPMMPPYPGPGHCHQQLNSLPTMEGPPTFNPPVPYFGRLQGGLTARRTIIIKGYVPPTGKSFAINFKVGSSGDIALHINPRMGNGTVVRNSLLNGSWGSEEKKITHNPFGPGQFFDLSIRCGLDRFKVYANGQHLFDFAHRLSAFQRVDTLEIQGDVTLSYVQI
Assay: Agglutination of glycodendrimersomes with Gal-4
Assay type: binding
Details: [52bd]=1.0 mg/mL, [Gal-4]=0-4.0 mg/mL, 10 mM HEPES

| Substance | agglutination with Gal-4 |
| --- | --- |
| (3,5)12G1-PE-TRZ-4EOLac2 [Compound 52bd] | agglutination |

Molecular target: T3, PA-IL (Pseudomonas aeruginosa, UniProt Q05097)
T3 construct: purchased Sigma-Aldrich
Assay: Agglutination of glycodendrimersomes with PA-IL
Assay type: binding
Details: 10 mM HEPES, 1.0 mM MnCl2 and CaCl2

T3 sequence (Q05097 whole entry): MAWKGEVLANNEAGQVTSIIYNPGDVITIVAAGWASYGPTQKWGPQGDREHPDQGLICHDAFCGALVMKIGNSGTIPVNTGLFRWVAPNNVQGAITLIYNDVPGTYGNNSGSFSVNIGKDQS

| Substance | agglutination with PA-IL |
| --- | --- |
| (3,5)12G1-PE-TRZi-3EOGal2 [Compound 51ba] | agglutination; also recorded: agglutinated |

Test system: not listed separately
Assay: Cryo-TEM of assemblies formed in water
Assay type: physicochemical
Details: 0.5 mg/mL in water, annealing at 60° C. for 30 min

| Substance | morphological change on annealing |
| --- | --- |
| (3,4,5)12G1-PE-TRZi-3EOMan2 [Compound 51cb] | transition from solid lamellae to solid vesicles |

Same assay, conditions: 1.0 mg/mL, Fourier transform of cryo-TEM

| Substance | symmetry of glycodendrimercubosome |
| --- | --- |
| (3,5)12G1-PE-TRZi-1EOMan2 [Compound 51bd] | Pn3m cubic symmetry |

Same assay, conditions: concentrations higher than 0.5 mg/mL

| Substance | structure of assemblies formed in water |
| --- | --- |
| (3,4,5)12G1-PE-TRZ-(mannose)2 [Compound 46cb] | polygonal glycodendrimersome |

Same assay, conditions: concentrations smaller than 0.5 mg/mL

| Substance | structure of assemblies formed in water |
| --- | --- |
| (3,4,5)12G1-PE-TRZ-(mannose)2 [Compound 46cb] | nano-tubular morphology is dominant |

Same assay, conditions: injection into water, cryo-TEM

| Substance | structure of assemblies formed in water |
| --- | --- |
| (3,5)12G1-PE-spacer-TRZ-(mannose)2 [Compound 50bb] | dendrimer aggregates |
| (3,4)12G1-PE-spacer-TRZ-(galactose)2 [Compound 50aa] | solid lamellae and solid vesicles |
| (3,4)12G1-PE-spacer-TRZ-(mannose)2 [Compound 50ab] | solid lamellae and solid vesicles |
| (3,5)12G1-PE-TRZi-2EOMan2 [Compound 51bc] | soft vesicles |
| (3,4,5)2Et8G1-PE-TRZi-Gal2 [Compound 49cc] | dendrimer aggregates |
| (3,4)12G1-PE-TRZ-1EOMan2 [Compound 51ad] | solid vesicles |
| (3,5)12G1-PE-TRZi-3EOLac2 [Compound 53ba] | soft glycodendrimersomes |
| (3,4)2Et8G1-PE-TRZi-3EOLac2 [Compound 53da] | glycodendrimersomes and solid lamellae; also recorded: soft glycodendrimersomes |
| (3,4)12G1-PE-TRZ-4EOLac2 [Compound 52ad] | mixture of soft vesicles and bundles of rod-like micelles |
| (3,4,5)12G1-PE-TRZi-1EOMan2 [Compound 51cd] | solid lamellae |
| (3,4,5)12G1-PE-TRZ-(galactose)2 [Compound 46ca] | solid lamellae |
| (3,4,5)12G1-PE-TRZi-3EOLac2 [Compound 53ca] | solid and polygonal glycodendrimersomes; also recorded: solid vesicles and solid lamellae |
| (3,4,5)2Et8G1-PE-TRZi-3EOGal2 [Compound 49cb] | only soft glycodendrimersomes |
| (3,4)12G1-PE-TRZi-3EOMan2 [Compound 51ab] | solid vesicles |
| (3,4,5)12G1-PE-TRZi-3EOMan2 [Compound 51cb] | solid lamellae |
| (3,4)12G1-PE-TRZi-2EOMan2 [Compound 51ac] | solid vesicles |
| (3,4)12G1-PE-TRZi-3EOGal2 [Compound 51aa] | solid lamellae |
| (3,5)2Et8G1-PE-TRZi-Man2 [Compound 49ba] | mixtures of soft glycodendrimersomes and dendrimer aggregates; also recorded: coexistence of thick-wall glycodendrimersomes and large dendrimer aggregates |
| (3,4,5)12G1-PE-spacer-TRZ-(4EO-lactose)2 [Compound 52dd] | glycodendrimersomes |
| (3,5)2Et8G1-PE-TRZi-3EOGal2 [Compound 49bb] | only soft glycodendrimersomes |
| (3,5)12G1-PE-spacer-TRZ-(galactose)2 [Compound 50ba] | dendrimer aggregates |
| (3,5)12G1-PE-TRZ-4EOLac2 [Compound 52bd] | glycodendrimersomes |

| Substance | structure of assemblies formed in water |
| --- | --- |
| (3,4)2Ethyl8G1-PE-TRZ-(galactose)2 [Compound 48aa] | dendrimer aggregates |
| (3,4,5)2Et8G1-PE-TRZi-3EOLac2 [Compound 53fa] | soft glycodendrimersomes |
| (3,4,5)12G1-PE-spacer-TRZ-(galactose)2 [Compound 50ca] | mixture of tubular and spherical glycodendrimersomes; also recorded: mixtures of tubular and soft spherical glycodendrimersomes and also bundles of tubular dendrimersomes |
| (3,4)12G1-PE-TRZ-(mannose)2 [Compound 46ab] | sheet-like solid lamellae |
| (3,4)2Et8G1-PE-TRZi-Man2 [Compound 49aa] | only soft glycodendrimersomes |
| (3,4)2Et8G1-PE-TRZi-3EOGal2 [Compound 49ab] | only soft glycodendrimersomes |
| (3,4,5)12G1-PE-spacer-TRZ-(1EO-lactose)2 [Compound 52dc] | glycodendrimersomes |
| (3,5)2Et8G1-PE-TRZi-Gal2 [Compound 49bc] | mixtures of dendrimer aggregates and cubosomes |
| (3,4)2Et8G1-PE-TRZ1-Gal2 [Compound 49ac] | only soft glycodendrimersomes |
| ((3,4)12G-PE-TRZ-(galactose)2 [Compound 46aa] | sheet-like solid lamellae |
| (3,4,5)12G1-PE-TRZ-(mannose)2 [Compound 46cb] | mixture of morphologies |
| (3,4)12G1-PE-TRZi-3EOLac2 [Compound 53aa] | combination of soft glycodendrimersomes and rod-like micelles |
| (3,4,5)2Et8G1-PE-TRZi-Man2 [Compound 49ca] | mixtures of soft glycodendrimersomes and dendrimer aggregates; also recorded: formation of dendrimer aggregates is dominant with only few glycodendrimersomes being observed |
| (3,5)12G1-PE-TRZi-3EOMan2 [Compound 51bb] | soft vesicles |
| (3,4)2Ethyl8G1-PE-TRZ-(mannose)2 [Compound 48ab] | dendrimer aggregates |
| (3,4,5)12G1-PE-spacer-TRZ-(mannose)2 [Compound 50cb] | tubular glycodendrimersome bundles; also recorded: mixtures of tubular and soft spherical glycodendrimersomes and also bundles of tubular dendrimersomes |
| (3,5)2Et8G1-PE-TRZi-3EOLac2 [Compound 53ea] | soft glycodendrimersomes |
| (3,4,5)12G1-PE-TRZi-2EOMan2 [Compound 51cc] | solid lamellae |
| (3,5)12G1-PE-TRZi-1EOMan2 [Compound 51bd] | cubosomes |
| (3,4,5)12G1-PE-TRZi-3EOGal2 [Compound 51ca] | solid lamellae |
| (3,4)12G1-PE-TRZi-Man2 [Compound 47ab] | solid glycodendrimersomes |
| (3,5)12G1-PE-TRZi-3EOGal2 [Compound 51ba] | soft vesicles |

Test system: not listed separately
Assay: Micropipette aspiration of giant glycodendrimersomes
Details: average of 11 (52dd) or 13 (51bc) vesicles

| Substance | elastic modulus of membrane [dyne/cm] |
| --- | --- |
| (3,5)12G1-PE-TRZi-2EOMan2 [Compound 51bc] | 163±30 |
| (3,4,5)12G1-PE-spacer-TRZ-(4EO-lactose)2 [Compound 52dd] | 49.6±15 |

Same assay, conditions: giant vesicles

| Substance | critical area strain |
| --- | --- |
| (3,5)12G1-PE-TRZi-2EOMan2 [Compound 51bc] | 5-10% |
| (3,4,5)12G1-PE-spacer-TRZ-(4EO-lactose)2 [Compound 52dd] | greater than 20% |

Same assay, conditions: giant vesicles prepared by hydration

| Substance | behaviour in micropipette aspiration |
| --- | --- |
| (3,4)12G1-PE-spacer-TRZ-(galactose)2 [Compound 50aa] | cannot be aspirated |
| (3,5)12G1-PE-TRZi-2EOMan2 [Compound 51bc] | fluid unilamellar membrane |
| (3,4)12G1-PE-TRZ-1EOMan2 [Compound 51ad] | cannot be aspirated |
| (3,4,5)12G1-PE-spacer-TRZ-(4EO-lactose)2 [Compound 52dd] | fluid unilamellar membrane; also recorded: display hysteresis |
| (3,5)12G1-PE-TRZi-3EOMan2 [Compound 51bb] | fluid unilamellar membrane |

Test system: Viscum album L. agglutinin (VAA)
Assay: not given
Details: not given

| Substance | agglutination with VAA |
| --- | --- |
| (3,5)12G1-PE-TRZ-4EOLac2 [Compound 52bd] | agglutination effect can be clearly visualized |
| (3,5)12G1-PE-TRZi-3EOGal2 [Compound 51ba] | agglutinated |
